# Where “and” joins values, the source holds several entries; their conditions need not be identical. Equal entries are not always repeated. Where no end group is shown, it is not given here.
# Columns and labels:
# [1] = tested on: P. aeruginosa PA01; conditions: planktonic cells; broth microdilution, BHI, 5 × 10^5 CFU/mL, 37 °C, 18 h; performed at least three times
# Description: (§1) In addition to the wild type lab isolates Pseudomonas aeruginosa strains PAO1 and PA14, a variety of cystic fibrosis clinical isolates of P. aeruginosa and Burkholderia cepacia complex strains were utilized (Table 1). Planktonic cells from each of the P. aeruginosa and B. cepacia strains were grown in BM2 glucose or cation-adjusted Mueller-Hinton. The minimal inhibitory concentration (MIC) for peptides in brain-heart infusion (BHI) was assessed by the broth microdilution method with minor modifications for cationic peptides. […] MIC assays were performed in sterile 96-well polypropylene microtiter plates. […] The plates were incubated at 37 °C for 18 h.
# [2] = tested on: P. aeruginosa 2639 (Mucoid); conditions: planktonic cells; broth microdilution, BHI, 5 × 10^5 CFU/mL, 37 °C, 18 h; performed at least three times
# Description: as §1
# [3] = tested on: P. aeruginosa C4276 (Classic); conditions: planktonic cells; broth microdilution, BHI, 5 × 10^5 CFU/mL, 37 °C, 18 h; performed at least three times
# Description: as §1
# [4] = tested on: P. aeruginosa 2955 (Dwarf); conditions: planktonic cells; broth microdilution, BHI, 5 × 10^5 CFU/mL, 37 °C, 18 h; performed at least three times
# Description: as §1
# [5] = tested on: B. cenocepacia CEP0055 (IIIb); conditions: planktonic cells; broth microdilution, BHI, 5 × 10^5 CFU/mL, 37 °C, 18 h; performed at least three times
# Description: as §1
# [6] = tested on: B. cenocepacia 4813 (IIIa); conditions: planktonic cells; broth microdilution, BHI, 5 × 10^5 CFU/mL, 37 °C, 18 h; performed at least three times
# Description: as §1
# [7] = tested on: P. aeruginosa C2773 (Classic); conditions: planktonic cells; broth microdilution, BHI, 5 × 10^5 CFU/mL, 37 °C, 18 h; performed at least three times
# Description: as §1
# [8] = tested on: P. aeruginosa PA14; conditions: planktonic cells; broth microdilution, BHI, 5 × 10^5 CFU/mL, 37 °C, 18 h; performed at least three times
# Description: as §1
# [9] = tested on: B. multivorans D2661 (Genomovar II); conditions: planktonic cells; broth microdilution, BHI, 5 × 10^5 CFU/mL, 37 °C, 18 h; performed at least three times
# Description: as §1
# [10] = tested on: P. aeruginosa 4608 (Mucoid); conditions: planktonic cells; broth microdilution, BHI, 5 × 10^5 CFU/mL, 37 °C, 18 h; performed at least three times
# Description: as §1
# [11] = tested on: P. aeruginosa 3330 (Classic); conditions: planktonic cells; broth microdilution, BHI, 5 × 10^5 CFU/mL, 37 °C, 18 h; performed at least three times
# Description: as §1
# [12] = tested on: P. aeruginosa 7633 (Entire); conditions: planktonic cells; broth microdilution, BHI, 5 × 10^5 CFU/mL, 37 °C, 18 h; performed at least three times
# Description: as §1
# [13] = tested on: B. cenocepacia CEP509 (IIIb); conditions: planktonic cells; broth microdilution, BHI, 5 × 10^5 CFU/mL, 37 °C, 18 h; performed at least three times
# Description: as §1
# [14] = tested on: P. aeruginosa 3195 (Classic); conditions: planktonic cells; broth microdilution, BHI, 5 × 10^5 CFU/mL, 37 °C, 18 h; performed at least three times
# Description: as §1
# [15] = tested on: P. aeruginosa 4020 (Classic); conditions: planktonic cells; broth microdilution, BHI, 5 × 10^5 CFU/mL, 37 °C, 18 h; performed at least three times
# Description: as §1
# [16] = tested on: B. dolosa CEP0021 (VI); conditions: planktonic cells; broth microdilution, BHI, 5 × 10^5 CFU/mL, 37 °C, 18 h; performed at least three times
# Description: as §1
# [17] = tested on: P. aeruginosa 7632 (Classic); conditions: planktonic cells; broth microdilution, BHI, 5 × 10^5 CFU/mL, 37 °C, 18 h; performed at least three times
# Description: as §1
# [18] = tested on: B. cenocepacia C5424 (IIIa); conditions: planktonic cells; broth microdilution, BHI, 5 × 10^5 CFU/mL, 37 °C, 18 h; performed at least three times
# Description: as §1
# [19] = tested on: B. ambifaria CEP0996 (VII); conditions: planktonic cells; broth microdilution, BHI, 5 × 10^5 CFU/mL, 37 °C, 18 h; performed at least three times
# Description: as §1
# [20] = tested on: P. aeruginosa C4278 (Mucoid); conditions: planktonic cells; broth microdilution, BHI, 5 × 10^5 CFU/mL, 37 °C, 18 h; performed at least three times
# Description: as §1
# [21] = tested on: P. aeruginosa 1172 (Classic); conditions: planktonic cells; broth microdilution, BHI, 5 × 10^5 CFU/mL, 37 °C, 18 h; performed at least three times
# Description: as §1
# [22] = tested on: P. aeruginosa 2631 (Classic); conditions: planktonic cells; broth microdilution, BHI, 5 × 10^5 CFU/mL, 37 °C, 18 h; performed at least three times
# Description: as §1
# [23] = tested on: B. stabilis C6061 (IV); conditions: planktonic cells; broth microdilution, BHI, 5 × 10^5 CFU/mL, 37 °C, 18 h; performed at least three times
# Description: as §1
# [24] = tested on: P. aeruginosa PA01; conditions: polypropylene 96-well plate, BM2 glucose, 22 h, 37 °C, crystal violet, absorbance 595, at least two independent experiments
# Description: (§2) To assess the biofilm-forming ability of the different clinical isolates, dilutions (1/100) of overnight cultures were incubated in 96-well polypropylene plates using BM2 glucose medium, as previously described.
# (§3) Biofilm formation was initially analyzed using a static abiotic solid surface assay as described elsewhere. Dilutions (1/100) of overnight cultures were incubated in BM2 glucose medium (62 mM potassium phosphate buffer (pH 7), 7 mM (NH4)2SO4, 2 mM MgSO4, 10 μM FeSO4, 0.4% (wt/vol) glucose, 0.5% (wt/vol) Casamino Acids) in polypropylene microtiter plates (Fisher Scientific, Waltham, MA, USA) in the presence of the different peptides for 22 h at 37 °C. Planktonic cells were removed and biofilm cells adhering to the side of the tubes were stained with crystal violet, extracted into ethanol, and the optical density at 595 nm (OD595) measured using a microtiter plate reader (Bio-Tek Instruments Inc., Winooski, VT, USA). Peptides were added at time zero (prior to adding the diluted, overnight cultures) at various concentrations, and the decrease in biofilm formation was recorded at 22 h for P. aeruginosa, Burkholderia and Methicillin-resistant Staphylococcus aureus isolates.
# [25] = tested on: P. aeruginosa 2639 (Mucoid); conditions: polypropylene 96-well plate, BM2 glucose, 22 h, 37 °C, crystal violet, absorbance 595, at least two independent experiments
# Description: as §2, §3
# [26] = tested on: P. aeruginosa 2955 (Dwarf); conditions: polypropylene 96-well plate, BM2 glucose, 22 h, 37 °C, crystal violet, absorbance 595, at least two independent experiments
# Description: as §2, §3
# [27] = tested on: B. cenocepacia CEP0055 (IIIb); conditions: polypropylene 96-well plate, BM2 glucose, 22 h, 37 °C, crystal violet, absorbance 595, at least two independent experiments
# Description: as §2, §3
# [28] = tested on: B. cenocepacia 4813 (IIIa); conditions: polypropylene 96-well plate, BM2 glucose, 22 h, 37 °C, crystal violet, absorbance 595, at least two independent experiments
# Description: as §2, §3
# [29] = tested on: P. aeruginosa PA14; conditions: polypropylene 96-well plate, BM2 glucose, 22 h, 37 °C, crystal violet, absorbance 595, at least two independent experiments
# Description: as §2, §3
# [30] = tested on: B. multivorans D2661 (Genomovar II); conditions: polypropylene 96-well plate, BM2 glucose, 22 h, 37 °C, crystal violet, absorbance 595, at least two independent experiments
# Description: as §2, §3
# [31] = tested on: P. aeruginosa 3330 (Classic); conditions: polypropylene 96-well plate, BM2 glucose, 22 h, 37 °C, crystal violet, absorbance 595, at least two independent experiments
# Description: as §2, §3
# [32] = tested on: P. aeruginosa 7633 (Entire); conditions: polypropylene 96-well plate, BM2 glucose, 22 h, 37 °C, crystal violet, absorbance 595, at least two independent experiments
# Description: as §2, §3
# [33] = tested on: B. cenocepacia CEP509 (IIIb); conditions: polypropylene 96-well plate, BM2 glucose, 22 h, 37 °C, crystal violet, absorbance 595, at least two independent experiments
# Description: as §2, §3
# [34] = tested on: P. aeruginosa 3195 (Classic); conditions: polypropylene 96-well plate, BM2 glucose, 22 h, 37 °C, crystal violet, absorbance 595, at least two independent experiments
# Description: as §2, §3
# [35] = tested on: B. dolosa CEP0021 (VI); conditions: polypropylene 96-well plate, BM2 glucose, 22 h, 37 °C, crystal violet, absorbance 595, at least two independent experiments
# Description: as §2, §3
# [36] = tested on: P. aeruginosa 7632 (Classic); conditions: polypropylene 96-well plate, BM2 glucose, 22 h, 37 °C, crystal violet, absorbance 595, at least two independent experiments
# Description: as §2, §3
# [37] = tested on: B. cenocepacia C5424 (IIIa); conditions: polypropylene 96-well plate, BM2 glucose, 22 h, 37 °C, crystal violet, absorbance 595, at least two independent experiments
# Description: as §2, §3
# [38] = tested on: B. ambifaria CEP0996 (VII); conditions: polypropylene 96-well plate, BM2 glucose, 22 h, 37 °C, crystal violet, absorbance 595, at least two independent experiments
# Description: as §2, §3
# [39] = tested on: P. aeruginosa 1172 (Classic); conditions: polypropylene 96-well plate, BM2 glucose, 22 h, 37 °C, crystal violet, absorbance 595, at least two independent experiments
# Description: as §2, §3
# [40] = tested on: P. aeruginosa 2631 (Classic); conditions: polypropylene 96-well plate, BM2 glucose, 22 h, 37 °C, crystal violet, absorbance 595, at least two independent experiments
# Description: as §2, §3
# [41] = tested on: B. stabilis C6061 (IV); conditions: polypropylene 96-well plate, BM2 glucose, 22 h, 37 °C, crystal violet, absorbance 595, at least two independent experiments
# Description: as §2, §3
substance,measurement,setting,value
VRLIVAVRIWRR-NH2 [Peptide 1018],MIC,[1],16 µg/mL
same,MIC,[2],32 µg/mL
same,MIC,[3],32 µg/mL
same,MIC,[4],50 µg/mL
same,MIC,[5],128 µg/mL
same,MIC,[6],>256 µg/mL
same,MIC,[7],16 µg/mL
same,MIC,[8],16 µg/mL
same,MIC,[9],>512 µg/mL
same,MIC,[10],32 µg/mL
same,MIC,[11],16 µg/mL
same,MIC,[12],16 µg/mL
same,MIC,[13],>256 µg/mL
same,MIC,[14],16 µg/mL
same,MIC,[15],16 µg/mL
same,MIC,[16],>256 µg/mL
same,MIC,[17],16 µg/mL
same,MIC,[18],128 µg/mL
same,MIC,[19],64 µg/mL
same,MIC,[20],16 µg/mL
same,MIC,[21],16 µg/mL
same,MIC,[22],32 µg/mL
same,MIC,[23],64 µg/mL
same,Inhibition by 10 µg/mL 1018 (biofilm formation),[24],~ 50% and 51%
same,Inhibition by 10 µg/mL 1018 (biofilm formation),[25],44%
same,Inhibition by 10 µg/mL 1018 (biofilm formation),[26],41%
same,Inhibition by 10 µg/mL 1018 (biofilm formation),[27],58%
same,Inhibition by 10 µg/mL 1018 (biofilm formation),[28],52%
same,Inhibition by 10 µg/mL 1018 (biofilm formation),[29],~ 50% and 49%
same,Inhibition by 10 µg/mL 1018 (biofilm formation),[30],75%
same,Inhibition by 10 µg/mL 1018 (biofilm formation),[31],33%
same,Inhibition by 10 µg/mL 1018 (biofilm formation),[32],49%
same,Inhibition by 10 µg/mL 1018 (biofilm formation),[33],61%
same,Inhibition by 10 µg/mL 1018 (biofilm formation),[34],37%
same,Inhibition by 10 µg/mL 1018 (biofilm formation),[35],55%
same,Inhibition by 10 µg/mL 1018 (biofilm formation),[36],19%
same,Inhibition by 10 µg/mL 1018 (biofilm formation),[37],59%
same,Inhibition by 10 µg/mL 1018 (biofilm formation),[38],62%
same,Inhibition by 10 µg/mL 1018 (biofilm formation),[39],37%
same,Inhibition by 10 µg/mL 1018 (biofilm formation),[40],44%
same,Inhibition by 10 µg/mL 1018 (biofilm formation),[41],53%

# — paper PMC4515429, “Anti-Biofilm and Immunomodulatory Activities of Peptides That Inhibit Biofilms Formed by Pathogens Isolated from Cystic Fibrosis Patients” (Antibiotics, 2014)
